Where a name gives a salt, the structure may show the parent alone.
Molecular target: T1, human GnRH receptor (Homo sapiens, UniProt P30968)
T1 construct: expressed in transfected cells; membrane fraction
T1 sequence (P30968 1-328): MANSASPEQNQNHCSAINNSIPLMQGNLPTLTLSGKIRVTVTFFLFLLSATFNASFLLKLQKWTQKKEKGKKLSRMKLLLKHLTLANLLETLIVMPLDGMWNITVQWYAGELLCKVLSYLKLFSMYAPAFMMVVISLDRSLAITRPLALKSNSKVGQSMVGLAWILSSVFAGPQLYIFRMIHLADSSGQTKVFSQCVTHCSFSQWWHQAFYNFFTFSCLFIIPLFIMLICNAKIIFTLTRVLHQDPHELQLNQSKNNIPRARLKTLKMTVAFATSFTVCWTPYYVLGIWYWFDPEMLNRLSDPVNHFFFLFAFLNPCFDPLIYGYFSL
Assay: Test of in vitro GnRH receptor antagonism: 125I-D-Trp6-LHRH binding inhibition
Conditions: inhibition of 0.1 nM 125I-D-Trp6-LHRH binding; membrane fractions of CHO cells expressing human GnRH receptor; 4° C. for 3 hours; read-out: IC50 value (concentration at which PMB equals 50%)
Description: In the following, in vitro GnRH receptor antagonistic effect of the pharmaceutical drugs and compounds of the invention was evaluated by inhibition of binding of ^125I-D-Trp^6-LHRH to human GnRH receptor.
1. Test of In Vitro GnRH Receptor Antagonism
(1) Preparation of Human GnRH Receptor-Expressing CHO (Chinese Hamster Ovary) Cells
Expression of human […] was carried out in a similar manner to a common method for protein expression (Chapter 9 In: Current Protocols In Molecular Biology: ed. by F. M. Ausubel et al., Greene Publishing Associates and Wiley-Interscience, 9.0.1-9.9.6 (1987), S. S. Kaker et al., Biol. Biophys. Res. Commun. 189, 289-295 (1992), R. Grosse et al., Mol. Endocrinol. 11, 1305-1318 (1997)). CHO cells were cultured (medium: αMEM, 10% FCS, containing an antibiotic-antimycotic agent) with an expression vector which has human GnRH receptor gene (SEQ ID No.: 1) and a transfection reagent FuGENE6 (manufactured by Boehringer-Mannheim) for 24 hours for transfection, whereby the CHO cells stably expressing human GnRH receptor (SEQ ID No.: 2, S. S. Kaker et al., Biol. Biophys. Res. Commun, 189, 289-295 (1992)) were obtained. The expression of the aimed receptor was confirmed by PCR method.
(2) Preparation of CHO Cell Membrane Fraction Containing Human GnRH Receptor
The CHO cells expressing the human GnRH receptor (3×10^8 cells), prepared in the above (1), were suspended in phosphate buffered saline (PBS) and centrifuged for 3 minutes at 100×G. The pellet suspended in 100 ml of a homogenate buffer (10 mM NaHCO3, 5 mM EDTA (ethylenediaminetetraacetic acid), pH 7.5) was homogenized using a Polytron homogenizer. After the resulting homogenate was centrifuged for 15 minutes at 400×G, the supernatant was centrifuged for 1 hour at 100,000×G. The membrane fraction obtained as a pellet was suspended in 60 ml of storage buffer (25 mM Tris-HCl, 1 mM EDTA, 10 μg/ml a protease inhibitor (Pefabloc SC (manufactured by Merck)), 1 μg/ml pepstatin A, 20 μg/ml leupeptin, 0.03% sodium azide, pH 7.5), and stored at −80° C. until use. […]
The membrane fractions of CHO cells expressing the human GnRH receptor which were prepared in the above (2) were diluted with assay buffer (HBSS (Hanks balanced salt solution), 20 mM HEPES, 0.1% BSA (bovine serum albumin), 100 μg/ml bacitracin, pH 7.4) so as to be 20 μg/tube, and were dispensed into tubes in an amount of 148 μl. […] The filters were washed three times with 1 ml of assay buffer and the radioactivity on the filter was measured using a γ-counter. Binding inhibition (%) (PMB) of each test compound at various concentrations were determined according to the following equation: PMB=(SB−NSB)/(TB−NSB)×100 (wherein TB: total binding radioactivity, SB: radioactivity when a test compound was added, NSB: non-specific binding radioactivity). […]

## Nc1cccc(C(=O)C(C(=O)c2cc(F)cc(F)c2)=C2Nc3ccccc3N2)c1 [Example 40, 1-(3-aminophenyl)-3-(3,5-difluorophenyl)-2-(1,3-dihydro-2H-benzimidazol-2-ylidene)propane-1,3-dione hydrochloride]
  IC50: 0.1 to 1 nM

## O=C(C(C(=O)c1cccc(CNCCc2ccncc2)c1)=C1Nc2ccccc2N1)c1ccccc1 [Example 79, 2-(1,3-dihydro-2H-benzimidazol-2-ylidene)-1-phenyl-3-(3-{[(2-pyridin-4-ylethyl)amino]methyl}phenyl)propane-1,3-dione hydrochloride]
  IC50: 0.1 to 1 nM

## O=C(C(C(=O)c1cccc(NCc2c[nH]cn2)c1)=C1Nc2ccccc2N1)c1cc(F)cc(F)c1 [Example 83, 1-(3,5-difluorophenyl)-2-(1,3-dihydro-2H-benzimidazol-2-ylidene)-3-{3-[(1H-imidazol-4-ylmethyl)amino]phenyl}propane-1,3-dione hydrochloride]
  IC50: 0.1 to 1 nM

## O=C(C(C(=O)c1cc(F)cc(F)c1)=C1Nc2ccc(OCc3cccnc3)cc2N1)c1ccccc1 [Example 402, 1-(3,5-difluorophenyl)-2-[5-(pyridin-3-ylmethoxy)-1,3-dihydro-2H-benzimidazol-2-ylidene]-3-phenylpropane-1,3-dione oxalate]
  IC50: 0.1 to 1 nM

Source: patent US6960591B2, “Propane-1,3-dione derivative” (Yamanouchi Pharmaceutical Co., Ltd., priority 2000, dated 2005)
